Patent publication US12077534B2, “Aza-heterobicyclic inhibitors of MAT2A and methods of use for treating cancer” (Les Laboratoires Servier SAS, priority 2018, dated 2024)
pIC50: −log10 of the molar value. Where two headings read alike, the source gives them in different places.

What was measured:
MAT2A homodimer = biological target: T1, MAT2A homodimer (Homo sapiens, UniProt P31153); assay: MAT2A biochemical assay (phosphate release, PiColorLock Gold); conditions: recombinant MAT2A homodimer, 60 min pre-incubation, 25° C.; read-out: Enzyme Inhibition
T1 construct: inferred from Ni sepharose purification and imidazole elution; made in house; host or cells: SF9 insect cells, recombinant baculovirus (Bac to Bac, pFASTBAC1)
Outline: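 Baculovirus/Sf9-expressed, Ni-purified MAT2A homodimer (4 µg/mL in pH 8.0 Tris/KCl/MgCl2 buffer) preincubated 60 min at 25 °C with compound (2% DMSO final). Substrate mix of 500 µM ATP and 400 µM L-methionine added; 60 min at 25 °C; released phosphate quantified colorimetrically against a phosphate standard curve.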

[1] = test system: MAT2A activity (SAM) in HCT116 cells with deleted MTAP gene; assay: Cellular assay of target engagement (SAM) by LC-MS/MS; type: cell-based; conditions: Homo sapiens, read-out: Cell 72 h SAM Inhibition (MTAP −/−)
Outline: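 HCT116 MTAP-deleted cells treated with 10-point 3-fold DMSO serial dilutions of compound for 72 hrs at 37° C. Cells lysed in cold 80% methanol/acetic acid extraction buffer with d3-SAM internal standard; SAM quantified by LC-MS/MS (MRM m/z 399.2→250.1).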

HCT116 MTAP−/− = assay: Inhibition of cellular proliferation (Cell Titer Glo), HCT116 MTAP-/-; type: cell-based; conditions: Homo sapiens, HCT-116, 96 h, 4 days, read-out: 4 Day Relative Growth Inhibition (MTAP −/−)
Outline: (§1)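 Isogenic HCT116 MTAP+/+ and MTAP−/− cells treated 24 h after plating with 10-point 3-fold dilutions, then grown 4 days at 37 °C/5% CO2. ATP content read by Cell Titer Glo luminescence, blank-subtracted and normalized to 0.2% DMSO control, plotted as percent proliferation change versus log molar concentration.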

HCT116 MTAP+/+ = assay: Inhibition of cellular proliferation (Cell Titer Glo), HCT116 MTAP+/+; type: cell-based; conditions: Homo sapiens, HCT-116, 96 h, 4 days, read-out: 4 Day Relative Growth Inhibition (MTAP +/+)
Outline: as §1

[2] = HCT-116, HCT116 MTAP −/−, 72 hrs

T1 sequence (P31153 whole entry): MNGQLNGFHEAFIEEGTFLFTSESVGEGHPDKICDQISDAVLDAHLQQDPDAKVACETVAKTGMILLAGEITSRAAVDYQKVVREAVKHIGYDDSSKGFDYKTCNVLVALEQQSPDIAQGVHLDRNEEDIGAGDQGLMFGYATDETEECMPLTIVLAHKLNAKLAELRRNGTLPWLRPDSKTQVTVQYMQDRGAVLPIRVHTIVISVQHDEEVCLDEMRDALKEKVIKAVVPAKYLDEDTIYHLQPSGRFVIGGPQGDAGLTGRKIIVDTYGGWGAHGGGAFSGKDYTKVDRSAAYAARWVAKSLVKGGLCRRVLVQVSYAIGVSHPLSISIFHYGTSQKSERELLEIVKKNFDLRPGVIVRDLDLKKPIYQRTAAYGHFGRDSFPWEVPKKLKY

| pIC50 (MAT2A homodimer) | pIC50 [1, 2] | pIC50 (HCT116 MTAP−/−) | pIC50 (HCT116 MTAP+/+) | SMILES | pIC50 ([1]; HCT-116, 72 h) |
| --- | --- | --- | --- | --- | --- |
| > 7.00 | 6.00 to 7.00 | 6.00 to 7.00 | ≤ 6.00 | Cn1cc2cc(-n3nc4ccc(OCC(F)F)nc4c(C4CCCCC4)c3=O)ccc2n1 [Example 206, 4-cyclohexyl-6-(2,2-difluoroethoxy)-2-(2-methyl-2H-indazol-5-yl)pyrido[3,2-c]pyridazin-3(2H)-one] |  |
| > 7.00 | > 7.00 | > 7.00 | ≤ 6.00 | Cn1cc2cc(-n3nc4ccc(NCC(F)(F)F)nc4c(-c4ccc(C(F)F)nc4)c3=O)ccc2n1 [Example 317] |  |
| > 7.00 | > 7.00 | > 7.00 | ≤ 6.00 | CCNc1nc2c(-c3ccc(OC(F)F)cc3)c(=O)n(-c3ccc4nn(C)cc4c3)nc2cc1F [Example 196] |  |
| > 7.00 | 6.00 to 7.00 | > 7.00 | ≤ 6.00 | Cn1cc2cc(-n3nc4ccc(OCC(F)F)nc4c(-c4cccc(Cl)c4)c3=O)ccc2n1 [Example 140] |  |
| > 7.00 | > 7.00 | > 7.00 | ≤ 6.00 | CC(C)Oc1ccc2nn(-c3ccc4ncsc4c3)c(=O)c(-c3ccc(OC(F)F)cc3)c2n1 [Example 146] |  |
| > 7.00 | > 7.00 | 6.00 to 7.00 | ≤ 6.00 | Cn1cc2cc(-n3nc4c(C(F)F)cc(OCC(F)F)nc4c(-c4ccc(OC(F)F)cc4)c3=O)ccc2n1 [Example 210, 6-(2,2-difluoroethoxy)-4-(4-(difluoromethoxy)phenyl)-8-(difluoromethyl)-2-(2-methyl-2H-indazol-5-yl)pyrido[3,2-c]pyridazin-3(2H)-one] |  |
| > 7.00 | > 7.00 | > 7.00 | ≤ 6.00 | [2H]C([2H])([2H])Oc1ccc(-c2c(=O)n(-c3ccc4nn(C)cc4c3)nc3ccc(OCC(F)F)nc23)cc1 [Example 108] |  |
| > 7.00 | > 7.00 | > 7.00 | ≤ 6.00 | CCOc1ccc2nn(-c3ccc4nn(C)cc4c3)c(=O)c(-c3ccc(OC(F)F)nc3)c2n1 [Example 120] |  |
| > 7.00 | > 7.00 | > 7.00 | ≤ 6.00 | CCOc1ccc2nn(-c3ccc4nn(C)cc4c3)c(=O)c(-c3ccc(Br)cc3)c2n1 [Example 198, 4-(4-bromophenyl)-6-ethoxy-2-(2-methyl-2H-indazol-5-yl)pyrido[3,2-c]pyridazin-3(2H)-one] |  |
| > 7.00 | > 7.00 | > 7.00 | ≤ 6.00 | CCNc1ccc2nn(-c3ccc4nn(C)cc4c3)c(=O)c(-c3ccc(C)nc3)c2n1 [Example 305] |  |
| > 7.00 | 6.00 to 7.00 | 6.00 to 7.00 | ≤ 6.00 | CCOc1ccc2nn(-c3ccc(OC)cc3)c(=O)c(-c3ccc(C)nc3)c2n1 [Example 112] |  |
| > 7.00 | > 7.00 | > 7.00 | 6.00 to 7.00 | COc1ccc(-c2c(=O)n(-c3ccc4nn(C)cc4c3)nc3ccc(OCC(F)F)nc23)cn1 [Example 130] |  |
| > 7.00 | > 7.00 | > 7.00 | 6.00 to 7.00 | CCOc1ccc2nn(-c3ccc4nn(C)cc4c3)c(=O)c(-c3ccc(OC(F)F)cc3)c2n1 [Example 217, 4-(4-(difluoromethoxy)phenyl)-6-ethoxy-2-(2-methyl-2H-indazol-5-yl)pyrido[3,2-c]pyridazin-3(2H)-one] |  |
| > 7.00 | > 7.00 | 6.00 to 7.00 | ≤ 6.00 | CC(C)COc1ccc2nn(-c3ccc4nn(C)cc4c3)c(=O)c(-c3ccc(OC(F)F)cc3)c2n1 [Example 141] |  |
| > 7.00 | > 7.00 | 6.00 to 7.00 | 6.00 to 7.00 | O=c1c(-c2ccc(C3CC3)cc2)c2nc(OCC(F)F)ccc2nn1-c1ccc2ncsc2c1 [Example 304] |  |
| 6.00 to 7.00 | < 6.00 | ≤ 6.00 | ≤ 6.00 | C#Cc1c(=O)n(-c2ccc3nn(C)cc3c2)nc2ccc(OCC(F)F)nc12 [Example 214, 6-(2,2-difluoroethoxy)-4-ethynyl-2-(2-methyl-2H-indazol-5-yl)pyrido[3,2-c]pyridazin-3(2H)-one] |  |
| > 7.00 | > 7.00 | > 7.00 | ≤ 6.00 | CCNc1ccc2nn(-c3ccc4nn(C)cc4c3)c(=O)c(-c3ccc(C(F)F)nc3)c2n1 [Example 310] |  |
| > 7.00 | > 7.00 | > 7.00 | ≤ 6.00 | COc1c2cc(-n3nc4ccc(OCC(F)F)nc4c(-c4ccc(Cl)cc4)c3=O)ccc2nn1C [Example 174] |  |

| pIC50 (MAT2A homodimer) | pIC50 [1, 2] | pIC50 (HCT116 MTAP−/−) | pIC50 (HCT116 MTAP+/+) | SMILES | pIC50 ([1]; HCT-116, 72 h) |
| --- | --- | --- | --- | --- | --- |
| > 7.00 | > 7.00 | > 7.00 | ≤ 6.00 | CCNc1ccc2nn(-c3ccc4nn(C)cc4c3)c(=O)c(-c3ccc(C4CC4)nc3)c2n1 [Example 309] |  |
| > 7.00 | > 7.00 | > 7.00 | ≤ 6.00 | Cn1cc2cc(-n3nc4ccc(OCC5CC5)nc4c(-c4ccc(C5CC5)nc4)c3=O)ccc2n1 [Example 303] |  |
| > 7.00 | > 7.00 | > 7.00 | ≤ 6.00 | CCCOc1ccc2nn(-c3ccc4nn(C)cc4c3)c(=O)c(-c3ccc(OC(F)F)cc3)c2n1 [Example 111] |  |
| > 7.00 | > 7.00 | > 7.00 | ≤ 6.00 | Cn1cc2cc(-n3nc4ccc(OCC(F)F)nc4c(-c4ccc(C5CC5)cc4)c3=O)ccc2n1 [Example 114] |  |
| > 7.00 | 6.00 to 7.00 | 6.00 to 7.00 | ≤ 6.00 | COc1ccc(-n2nc3ccc(OCC(F)F)nc3c(-c3ccc(OC(F)F)cc3)c2=O)cc1 [Example 105] |  |
| > 7.00 | < 6.00 | 6.00 to 7.00 | ≤ 6.00 | Cn1cc2cc(-n3nc4ccc(OCC(F)F)nc4c(C#Cc4cc[nH]n4)c3=O)ccc2n1 [Example 215, 4-((1H-pyrazol-3-yl)ethynyl)-6-(2,2-difluoroethoxy)-2-(2-methyl-2H-indazol-5-yl)pyrido[3,2-c]pyridazin-3(2H)-one] |  |
| > 7.00 | > 7.00 | > 7.00 | ≤ 6.00 | CCOc1ccc2nn(-c3ccc4nn(C)cc4c3)c(=O)c(-c3ccc(Cl)cc3)c2n1 [Example 119] |  |
| > 7.00 | > 7.00 | > 7.00 | ≤ 6.00 | Cn1cc2cc(-n3nc4ccc(NC5CC5)nc4c(-c4ccc(OC(F)F)cc4)c3=O)ccc2n1 [Example 162] |  |
| > 7.00 | 6.00 to 7.00 | > 7.00 | ≤ 6.00 | CCOc1ccc2nn(-c3ccc(OC)cc3)c(=O)c(-c3ccc(OC(F)F)nc3)c2n1 [Example 122] |  |
| > 7.00 | > 7.00 | > 7.00 | ≤ 6.00 | CCSc1ccc2nn(-c3ccc4nn(C)cc4c3)c(=O)c(-c3ccc(OC(F)F)cc3)c2n1 [Example 158] |  |
| > 7.00 | > 7.00 | > 7.00 | ≤ 6.00 | Cn1cc2cc(-n3nc4ccc(OCC5CC5)nc4c(-c4ccc(OC(F)F)cc4)c3=O)ccc2n1 [Example 137] |  |
| > 7.00 | > 7.00 | 6.00 to 7.00 | ≤ 6.00 | O=c1c(-c2ccc(OC(F)F)cc2)c2nc(OCC(F)F)ccc2nn1-c1ccc2nncn2c1 [Example 184] |  |
| > 7.00 | > 7.00 | > 7.00 | 6.00 to 7.00 | Cc1c2cc(-n3nc4ccc(OCC(F)F)nc4c(-c4ccc(Cl)cc4)c3=O)ccc2nn1C [Example 173] |  |
| 6.00 to 7.00 | < 6.00 | ≤ 6.00 | ≤ 6.00 | Cn1cc2cc(-n3nc4ccc(OCC(F)F)nc4c(-c4ccn[nH]4)c3=O)ccc2n1 [Example 153] |  |
| > 7.00 | 6.00 to 7.00 | ≤ 6.00 | ≤ 6.00 | COC1CC=C(n2nc3ccc(OCC(F)F)nc3c(-c3ccc(OC(F)F)cc3)c2=O)CC1 (stereo not drawn) [Example 187] |  |
| > 7.00 | > 7.00 | > 7.00 | ≤ 6.00 | Cn1cc2cc(-n3nc4ccc(OCC(F)F)nc4c(-c4ccc5[nH]ccc5c4)c3=O)ccc2n1 [Example 150] |  |
| > 7.00 | > 7.00 | > 7.00 | ≤ 6.00 | Cn1cc2cc(-n3nc4ccc(NCC(F)F)nc4c(-c4ccc(Cl)cc4)c3=O)ccc2n1 [Example 156] |  |

| SMILES | pIC50 (MAT2A homodimer) | pIC50 [1, 2] | pIC50 (HCT116 MTAP−/−) | pIC50 (HCT116 MTAP+/+) | pIC50 ([1]; HCT-116, 72 h) |
| --- | --- | --- | --- | --- | --- |
| Cn1cc2cc(-n3nc4c(COC5CCCCO5)cc(OCC(F)F)nc4c(-c4ccc(OC(F)F)cc4)c3=O)ccc2n1 (stereo not drawn) [Example 142, 6-(2,2-difluoroethoxy)-4-(4-(difluoromethoxy)phenyl)-2-(2-methyl-2H-indazol-5-yl)-8-(((tetrahydro-2H-pyran-2-yl)oxy)methyl)pyrido[3,2-c]pyridazin-3(2H)-one] | > 7.00 |  | 6.00 to 7.00 | ≤ 6.00 | 6.00 to 7.00 |
